In patent publication US20080227798A1, “POLYMORPHS OF SUCCINATE SALT OF 2-[6-(3-AMINO-PIPERIDIN-1-YL)-3-METHYL-2,4-DIOXO-3,4-DIHYDRO-2H-PYRIMIDIN-1-YLMETHY]-4-FLUOR-BENZONITRILE AND METHODS OF USE THEREFOR” (priority 2006, published 2008):
Entries after “also recorded” stand apart in the source; their conditions may differ.

Columns and labels:
Format in all cases: physicochemical
[1] = Slurry interconversion studies
Text: An excess amount of Compound I was slurried in test solvent on a rotating wheel for approximately 5 or 7 days. The solids were typically collected by vacuum filtration, air dried in the hood, and analyzed by XRPD for form identification.
Samples of mixture of Form A and Form B of Compound I were slurried in water and THF:water (9:1), for up to 13 days.

[2] = Moisture sorption/desorption analysis
Experimental: Moisture sorption/desorption data were collected on a VTI SGA-100 Vapor Sorption Analyzer. Sorption and desorption data were collected over a range of 5% to 95% relative humidity (RH) at 10% RH intervals under a nitrogen purge. Samples were not dried prior to analysis. Equilibrium criteria used for analysis were less than 0.0100% weight change in 5 minutes, with a maximum equilibration time of 3 hours if the weight criterion was not met. Data were not corrected for the initial moisture content of the samples. NaCl and PVP were used as calibration standards. Moisture sorption and desorption study was conducted on a sample of Form A+B. The sample was prepared by crashed cooling crystallization (Example 3, section A.6) of the polymorphic forms from a ethanol:water (95:5) solution of Compound I. The moisture sorption and desorption study was conducted according to the procedures outlined in Example 3, section B.10. The data collected is plotted in FIG. 13 and summarized in Table L. Moisture sorption and desorption study was conducted on a sample of Form E. The sample was prepared by solvent/antisolvent crystallization (Example 3, section A.7) by the addition of acetonitrile to Compound I in water. The moisture sorption and desorption study was conducted according to the procedures outlined in Example 3, section B.10. The data collected is plotted in FIG. 23 and summarized in Table M. Moisture sorption and desorption study was conducted on a sample of Amorphous Form. The sample was prepared by lyophilolization of a solution of Compound I in water (Example 3, section A.9). The moisture sorption and desorption study was conducted according to the procedures outlined in Example 3, section B.10.

[3] = Relative humidity stressing experiments
Text: Samples of Compound I were placed uncovered in approximately 58%, 88%, and 97% relative humidity jars. The samples were stored in the jars for approximately 8 days. The solids were collected and analyzed by XRPD for form identification. […] An aliquot of a mixture of Form A+B was stressed at 88% relative humidity for 23 days. Amorphous Form was stressed at 58% and 88% relative humidity for 23 days.

[4] = Dehydration experiment
Text: Hydrated samples of Compound I were dehydrated at ambient conditions (2 days) and in an ambient temperature vacuum oven (1 day). The solids were collected and analyzed by XRPD for form identification.
Aliquots of Form A+B of Compound I were stored at ambient condition for two days and in an ambient temperature vacuum over for one day. The solids were collected and analyzed by XRPD and confirmed to be Form A.

[5] = Thermogravimetric-infrared (TG-IR) analysis
Text: Thermogravimetric infrared (TG-IR) analyses were acquired on a TA Instruments thermogravimetric (TG) analyzer model 2050 interfaced to a Magna 560® Fourier transform infrared (FT-IR) spectrophotometer (Thermo Nicolet) equipped with an Ever-Glo mid/far IR source, a potassium bromide (KBr) beamsplitter, and a deuterated triglycine sulfate (DTGS) detector. The TG instrument was operated under a flow of helium at 90 and 10 cc/min for the purge and balance, respectively. Each sample was placed in a platinum sample pan, inserted into the TG furnace, accurately weighed by the instrument, and the furnace was heated from ambient temperature to 250° C. at a rate of 20° C./min. The TG instrument was started first, immediately followed by the FT-IR instrument. Each IR spectrum represents 32 co-added scans collected at a spectral resolution of 4 cm^−1. A background scan was collected before the beginning of the experiment. Wavelength calibration was performed using polystyrene. The TG calibration standards were nickel and Alumel™. Volatiles were identified from a search of the High Resolution Nicolet TGA Vapor Phase spectral library.

[6] = Thermogravimetric analysis (TGA)
Experimental: Thermogravimetric (TG) analyses were performed using a TA Instruments 2950 thermogravimetric analyzer. Each sample was placed in an aluminum sample pan and inserted into the TG furnace. The furnace was first equilibrated at 25° C., then heated under nitrogen at a rate of 10° C./min, up to a final temperature of 350° C. Nickel and Alumel™ were used as the calibration standards.

Cn1c(=O)cc(N2CCC[C@@H](N)C2)n(Cc2cc(F)ccc2C#N)c1=O.O=C(O)CCC(=O)O [A + B]
Final Form after slurry (XRPD) ([1]; THF:H2O 9:1, 13 days (approximate)): A + B

Cn1c(=O)cc(N2CCC[C@@H](N)C2)n(Cc2cc(F)ccc2C#N)c1=O.O=C(O)CCC(=O)O [Form A+B]
reversible weight change on sorption/desorption [2]: 1.2% | weight gain on sorption ([2]; 5-95% RH): 1.2% weight gain from 5-95% RH | weight lost on desorption ([2]; 95-5% RH): 1.2% weight lost from 95-5% RH | Weight % chg ([2]; Samp RH 4.83%, 25.10° C., elapsed 445.9 min (desorption)): −0.658% | Weight % chg ([2]; Samp RH 5.14%, 25.05° C., elapsed 91.5 min): −0.665% | Weight % chg ([2]; Samp RH 14.88%, 25.04° C., elapsed 137.8 min (sorption)): −0.184% | Weight % chg ([2]; Samp RH 14.96%, 25.09° C., elapsed 359.7 min (desorption)): 0.020% | Weight % chg ([2]; Samp RH 25.03%, 25.07° C., elapsed 165.5 min (sorption)): 0.004% | Weight % chg ([2]; Samp RH 25.11%, 25.09° C., elapsed 338.5 min (desorption)): 0.149% | Weight % chg ([2]; Samp RH 34.82%, 25.06° C., elapsed 179.7 min (sorption)): 0.098% | Weight % chg ([2]; Samp RH 34.92%, 25.06° C., elapsed 319.3 min (desorption)): 0.237% | Weight % chg ([2]; Samp RH 44.88%, 25.06° C., elapsed 196.2 min (sorption)): 0.208% | Weight % chg ([2]; Samp RH 45.07%, 25.07° C., elapsed 307.3 min (desorption)): 0.299% | Weight % chg ([2]; Samp RH 54.95%, 25.06° C., elapsed 208.7 min (sorption)): 0.284% | Weight % chg ([2]; Samp RH 55.02%, 25.07° C., elapsed 296.5 min (desorption)): 0.353% | Weight % chg ([2]; Samp RH 62.77%, 25.03° C., elapsed 0.1 min (start)): 0.000% | Weight % chg ([2]; Samp RH 64.94%, 25.04° C., elapsed 285.2 min (desorption)): 0.406% | Weight % chg ([2]; Samp RH 65.00%, 25.08° C., elapsed 219.7 min (sorption)): 0.347% | Weight % chg ([2]; Samp RH 75.01%, 25.05° C., elapsed 231.9 min (sorption)): 0.406% | Weight % chg ([2]; Samp RH 75.35%, 25.08° C., elapsed 274.2 min (desorption)): 0.456% | Weight % chg ([2]; Samp RH 84.92%, 25.09° C., elapsed 243.8 min (sorption)): 0.466% | Weight % chg ([2]; Samp RH 85.01%, 25.08° C., elapsed 265.2 min (desorption)): 0.510% | Weight % chg ([2]; Samp RH 94.67%, 25.08° C., elapsed 256.6 min (sorption)): 0.563% | form by XRPD after relative humidity stressing ([3]; 58% relative humidity, 23 days): Form A | form by XRPD after relative humidity stressing ([3]; 88% relative humidity, 23 days): Form A | form by XRPD after dehydration ([4]; ambient conditions, two days): converted to Form A | form by XRPD after dehydration ([4]; vacuum oven at ambient temperature, one day): converted to Form A | form by XRPD after slurry ([1]; slurried in water and THF:water (9:1), up to 13 days): either Form A or Form A+B | form after slurry ([1]; slurried in water, water removed by evaporation): converted to Form A | water content consistent with weight loss ([5]; from 2.4% weight loss): 0.5 to 1.0 moles of water

Cn1c(=O)cc(N2CCC[C@@H](N)C2)n(Cc2ccccc2C#N)c1=O.O=C(O)CCC(=O)O [Form A]
stability at ambient conditions ([3]; ambient conditions, conclusion from characterization data): stable | form by XRPD after relative humidity stressing ([3]; approximately 50% relative humidity, 29 days): Form A | form by XRPD after relative humidity stressing ([3]; approximately 58% relative humidity, 29 days): did not exhibit form changes | form by XRPD after relative humidity stressing ([3]; approximately 97% relative humidity, 29 days): did not exhibit form changes; also recorded: Form A | TGA weight loss ([6]; heated from 25° C. to 165° C.): insignificant weight loss

Cn1c(=O)cc(N2CCC[C@@H](N)C2)n(Cc2cc(F)ccc2C#N)c1=O.O=C(O)CCC(=O)O [Form D]
TGA total weight loss ([6]; equilibration plus 25° C. to 85° C.): approximately 30% | water content consistent with total weight loss ([6]; from about 30% total weight loss): approximately 11 moles of water | TG-IR weight loss ([5]; heated from 20° C. to 100° C., evaporation of water): 24.0% weight loss when heated from
